Where two headings read alike, the source gives them in different places. Each block holds one molecule with its values, some of them ahead of it.
How the values were obtained:
CLK3 = CLK3 (Homo sapiens, UniProt P49761); test: CLK3 kinase activity assay (Z-lyte, Ser/Thr 18 peptide)
[1] = system: pancreatic cancer (8 cell lines); test: CellTiter-Glo Viability Assay, pancreatic cancer; type: cell-based; conditions: Homo sapiens, inhibition of cancer cell proliferation
[2] = system: ovarian cancer (4 cell lines); test: CellTiter-Glo Viability Assay, ovarian cancer; type: cell-based; conditions: Homo sapiens, inhibition of cancer cell proliferation
all 50 cell lines = test: CellTiter-Glo Viability Assay, average across all cell lines; type: cell-based; conditions: Homo sapiens; across all 50 cell lines; read-out: average EC50 for inhibition of cancer cell proliferation
How it was run: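 4-day proliferation, 37° C/5% CO2; 300-3,000 cells/well; compound in duplicate vs DMSO controls. Panel: breast, colorectal, heme/lymphoid, liver, lung, ovarian, pancreatic, prostate lines. Read-out: CellTiter-Glo ATP luminescence, EC50 from dose-response.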

[3] = system: liver cancer (3 cell lines); test: CellTiter-Glo Viability Assay, liver cancer; type: cell-based; conditions: Homo sapiens, inhibition of cancer cell proliferation
[4] = system: colorectal cancer (6 cell lines); test: CellTiter-Glo Viability Assay, colorectal cancer; type: cell-based; conditions: Homo sapiens, inhibition of cancer cell proliferation
[5] = system: prostate cancer (5 cell lines); test: CellTiter-Glo Viability Assay, prostate cancer; type: cell-based; conditions: Homo sapiens
CLK2 = molecular target: T1, CLK2 (Homo sapiens, UniProt P49760); test: CLK2 kinase activity assay (Z-lyte, Ser/Thr 6 peptide); type: biochemical; conditions: recombinant CLK2 kinase, ATP 60 μM; read-out: EC50
T1 construct: purchased Thermo Fisher (Life Technologies), Z'-LYTE Kinase Assay Kits
Method: All reactions were performed in duplicate.

[6] = system: lung cancer (4 cell lines); test: CellTiter-Glo Viability Assay, lung cancer; type: cell-based; conditions: Homo sapiens, inhibition of cancer cell proliferation
CAMA1 = test: CellTiter-Glo Viability Assay, breast cancer; type: cell-based; conditions: Homo sapiens, CAMA-1, 96 h; CAMA1, breast cancer, four days; read-out: EC50
MCF7 = test: CellTiter-Glo Viability Assay, breast cancer; type: cell-based; conditions: Homo sapiens, 96 h; MCF7, breast cancer, four days; read-out: EC50
HCC1599 = test: CellTiter-Glo Viability Assay, breast cancer; type: cell-based; conditions: Homo sapiens, 96 h; HCC1599, breast cancer, four days; read-out: EC50
BT-549 = test: CellTiter-Glo Viability Assay, breast cancer; type: cell-based; conditions: Homo sapiens, 96 h; BT-549, breast cancer, four days; read-out: EC50
ZR-75-1 = test: CellTiter-Glo Viability Assay, breast cancer; type: cell-based; conditions: Homo sapiens, 96 h; ZR-75-1, breast cancer, four days; read-out: EC50
T47D = test: CellTiter-Glo Viability Assay, breast cancer; type: cell-based; conditions: Homo sapiens, 96 h, breast cancer, four days, read-out: EC50
MDA-MB-231-Luc = test: CellTiter-Glo Viability Assay, breast cancer; type: cell-based; conditions: Homo sapiens, 96 h; MDA-MB-231-Luc, breast cancer, four days; read-out: EC50
DU4475 = test: CellTiter-Glo Viability Assay, breast cancer; type: cell-based; conditions: Homo sapiens, DU-4475, 96 h; DU4475, breast cancer, four days; read-out: EC50
[7] = system: haematopoietic & lymphoid tumors (13 cell lines); test: CellTiter-Glo Viability Assay, haematopoietic & lymphoid tumors; type: cell-based; conditions: Homo sapiens, inhibition of cancer cell proliferation
[8] = BXPC-3, BxPC3 cell line, read-out: Pancreatic cancer, EC50 BxPC3
[9] = CAPAN-1, Capan1 cell line, read-out: Pancreatic cancer, EC50 Capan1
[10] = Capan-2, Capan2 cell line, read-out: Pancreatic cancer, EC50 Capan2
[11] = MIA PaCa-2 cell line, read-out: Pancreatic cancer, EC50 MIA PaCa-2
[12] = PANC 05.04 cell line, read-out: Pancreatic cancer, EC50 PANC 05.04
[13] = PANC-1 cell line, read-out: Pancreatic cancer, EC50 PANC-1
[14] = UPAFII cell line, read-out: Pancreatic cancer, EC50 UPAFII
[15] = PA-1, PA1 cell line, read-out: Ovarian cancer, EC50 (μM) PA1
[16] = TOV112D, TOV-112D cell line, read-out: Ovarian cancer, EC50 (μM) TOV-112D
[17] = OV-90 cell line, read-out: Ovarian cancer, EC50 (μM) OV-90
[18] = OVCAR-3 cell line, read-out: Ovarian cancer, EC50 (μM) OVCAR-3
[19] = SNU-398, SNU398 cell line, read-out: Liver cancer, EC50 SNU398
[20] = HEPG2 cell line, read-out: Liver cancer, EC50 HEPG2
[21] = PLC/PRF/5 cell line, read-out: Liver cancer, EC50 PLC/PRF/5
[22] = HCT-116, HCT116 cell line, read-out: Colorectal cancer, EC50 (μM) HCT116
[23] = HT-29, HT29 cell line, read-out: Colorectal cancer, EC50 (μM) HT29
[24] = SW-620, SW620 cell line, read-out: Colorectal cancer, EC50 (μM) SW620
[25] = DLD-1 cell line, read-out: Colorectal cancer, EC50 (μM) DLD-1
[26] = SW48 cell line, read-out: Colorectal cancer, EC50 (μM) SW48
[27] = DU-145, read-out: Prostate cancer EC50 Du-145
[28] = PC-3, PC3 cell line, inhibition of cancer cell proliferation, read-out: Prostate cancer EC50 PC3
[29] = 22Rv1 cell line, inhibition of cancer cell proliferation, read-out: Prostate cancer EC50 22Rv1
[30] = LNCap clone FGC cell line, inhibition of cancer cell proliferation, read-out: Prostate cancer EC50 LNCap clone FGC
[31] = VCaP (Sigma) cell line, inhibition of cancer cell proliferation, read-out: Prostate cancer EC50 VCaP (Sigma)
[32] = A-427, A427 cell line, read-out: Lung cancer, EC50 (μM) A427
[33] = HCC78, HCC-78 cell line, read-out: Lung cancer, EC50 (μM) HCC-78
[34] = NCI-H460 cell line, read-out: Lung cancer, EC50 (μM) NCI-H460
[35] = NCI-H522 cell line, read-out: Lung cancer, EC50 (μM) NCI-H522
[36] = DND41, DND-41 cell line, read-out: Haematopoietic & Lymphoid tumors, EC50 (μM) DND-41
[37] = MV4-11, MV-4-11 cell line, read-out: Haematopoietic & Lymphoid tumors, EC50 (μM) MV-4-11
[38] = Rec1, REC-1 cell line, read-out: Haematopoietic & Lymphoid tumors, EC50 (μM) REC-1
[39] = SU-DHL-4, SUDHL4 cell line, read-out: Haematopoietic & Lymphoid tumors, EC50 (μM) SUDHL4
[40] = HL-60 cell line, read-out: Haematopoietic & Lymphoid tumors, EC50 (μM) HL-60
[41] = JM1 cell line, read-out: Haematopoietic & Lymphoid tumors, EC50 (μM) JM1
[42] = JURKAT, Clone E6-1 cell line, read-out: Haematopoietic & Lymphoid tumors, EC50 (μM) JURKAT, Clone E6-1
[43] = JeKo-1 cell line, read-out: Haematopoietic & Lymphoid tumors, EC50 (μM) JeKo-1
[44] = KASUMI-1 cell line, read-out: Haematopoietic & Lymphoid tumors, EC50 (μM) KASUMI-1
[45] = Loucy cell line, read-out: Haematopoietic & Lymphoid tumors, EC50 (μM) Loucy
[46] = MOLT-4 cell line, read-out: Haematopoietic & Lymphoid tumors, EC50 (μM) MOLT-4
[47] = TF-1 cell line, read-out: Haematopoietic & Lymphoid tumors, EC50 (μM) TF-1
[48] = TOLEDO cell line, read-out: Haematopoietic & Lymphoid tumors, EC50 (μM) TOLEDO

T1 sequence (P49760 whole entry): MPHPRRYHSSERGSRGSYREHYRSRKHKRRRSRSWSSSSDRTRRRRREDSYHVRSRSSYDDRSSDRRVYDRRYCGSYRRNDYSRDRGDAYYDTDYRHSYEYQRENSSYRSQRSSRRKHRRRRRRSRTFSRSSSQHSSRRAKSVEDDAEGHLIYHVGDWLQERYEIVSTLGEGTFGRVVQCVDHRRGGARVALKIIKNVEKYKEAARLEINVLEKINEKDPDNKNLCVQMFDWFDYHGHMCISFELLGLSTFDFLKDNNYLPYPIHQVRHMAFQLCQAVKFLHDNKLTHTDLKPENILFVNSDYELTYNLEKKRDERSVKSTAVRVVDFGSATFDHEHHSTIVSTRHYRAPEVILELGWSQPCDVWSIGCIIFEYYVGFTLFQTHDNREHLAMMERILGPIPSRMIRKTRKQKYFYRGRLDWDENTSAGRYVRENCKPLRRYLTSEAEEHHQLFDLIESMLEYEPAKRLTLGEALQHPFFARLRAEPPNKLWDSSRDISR
Chain of CLK3 (P49761 whole entry): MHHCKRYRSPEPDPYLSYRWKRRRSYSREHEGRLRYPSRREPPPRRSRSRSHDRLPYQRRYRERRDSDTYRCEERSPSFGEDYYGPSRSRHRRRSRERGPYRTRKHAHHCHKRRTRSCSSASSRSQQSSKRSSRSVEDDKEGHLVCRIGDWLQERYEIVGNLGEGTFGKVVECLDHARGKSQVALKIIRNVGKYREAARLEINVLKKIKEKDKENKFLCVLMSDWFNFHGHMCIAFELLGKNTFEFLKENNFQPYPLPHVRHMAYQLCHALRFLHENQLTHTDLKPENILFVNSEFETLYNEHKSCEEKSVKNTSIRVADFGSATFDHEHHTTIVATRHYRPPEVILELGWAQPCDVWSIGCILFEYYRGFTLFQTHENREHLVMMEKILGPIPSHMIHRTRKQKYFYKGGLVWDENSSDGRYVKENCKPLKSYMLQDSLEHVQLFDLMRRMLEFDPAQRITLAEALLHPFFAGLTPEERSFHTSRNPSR

EC50 (CLK3): 15.4 nM
EC50 [1, 8]: 848 nM
EC50 [1, 9]: 372 nM
EC50 [1, 10]: 620 nM
EC50 [1, 11]: 261 nM
EC50 [1, 12]: 564 nM
EC50 [1, 13]: 600 nM
EC50 [1, 14]: 348 nM
EC50 [2, 15]: 0.218 µM
EC50 [2, 16]: 0.228 µM
EC50 [2, 17]: 0.838 µM
EC50 [2, 18]: 0.315 µM
EC50 [3, 19]: 112 nM
EC50 [3, 20]: 470 nM
EC50 [3, 21]: 466 nM
EC50 [4, 22]: 0.147 µM
EC50 [4, 23]: 0.433 µM
EC50 [4, 24]: 0.135 µM
EC50 [4, 25]: 0.199 µM
EC50 [4, 26]: 0.12 µM
EC50 ([4]; SW480 cell line, read-out: Colorectal cancer, EC50 (μM) SW480): 0.132 µM
EC50 [5, 27]: 429 nM
EC50 [5, 28]: 287 nM
EC50 [5, 29]: 329 nM
EC50 [5, 30]: 444 nM
EC50 [5, 31]: 497 nM
EC50 (CLK2): 3.4 nM
EC50 [6, 32]: 0.216 µM
EC50 [6, 33]: 0.396 µM
EC50 [6, 34]: 0.329 µM
EC50 [6, 35]: 0.216 µM
EC50 (CAMA1): 429 nM
EC50 (MCF7): 505 nM
EC50 (HCC1599): 165 nM
EC50 (BT-549): 273 nM
EC50 (ZR-75-1): 441 nM
EC50 (T47D): 471 nM
EC50 (MDA-MB-231-Luc): 338 nM
EC50 (DU4475): 152 nM
EC50 [7, 36]: 0.213 µM
EC50 [7, 37]: 0.025 µM
EC50 [7, 38]: 0.106 µM
EC50 [7, 39]: 0.407 µM
EC50 [7, 40]: 0.235 µM
EC50 [7, 41]: 0.12 µM
EC50 [7, 42]: 0.305 µM
EC50 [7, 43]: 0.136 µM
EC50 [7, 44]: 0.206 µM
EC50 [7, 45]: 0.374 µM
EC50 [7, 46]: 0.186 µM
EC50 [7, 47]: 0.391 µM
EC50 [7, 48]: 0.13 µM
Compound: [2H]c1c([2H])c([2H])c(/C=C/C(=O)Nc2cc3cc(-c4cncn4C)ccc3cn2)c([2H])c1[2H] [Compound 81]
EC50 (all 50 cell lines): 324 nM

EC50 (CLK3): 31 nM
EC50 [1, 8]: > 10000 nM
EC50 [1, 9]: > 10000 nM
EC50 [1, 10]: > 10000 nM
EC50 [1, 11]: 3520 nM
EC50 [1, 12]: > 10000 nM
EC50 [1, 13]: > 10000 nM
EC50 [1, 14]: 8920 nM
EC50 [2, 15]: 8.98 µM
EC50 [2, 16]: > 10 µM
EC50 [2, 17]: > 10 µM
EC50 [2, 18]: 3.22 µM
EC50 [3, 19]: 232 nM
EC50 [3, 20]: > 10000 nM
EC50 [3, 21]: > 10000 nM
EC50 [4, 22]: 3.45 µM
EC50 [4, 23]: > 10 µM
EC50 [4, 24]: 2.34 µM
EC50 [4, 25]: 1.64 µM
EC50 [4, 26]: 3.77 µM
EC50 [5, 27]: > 10000 nM
EC50 [5, 28]: 7870 nM
EC50 [5, 29]: 859 nM
EC50 [5, 30]: > 10000 nM
EC50 [5, 31]: > 10000 nM
EC50 (CLK2): 1.4 nM
EC50 [6, 32]: > 10 µM
EC50 [6, 33]: > 10 µM
EC50 [6, 34]: > 10 µM
EC50 [6, 35]: 5.83 µM
EC50 (CAMA1): > 10000 nM
EC50 (MCF7): > 10000 nM
EC50 (HCC1599): 407 nM
EC50 (BT-549): > 10000 nM
EC50 (ZR-75-1): > 10000 nM
EC50 (T47D): > 10000 nM
EC50 (MDA-MB-231-Luc): > 10000 nM
EC50 (DU4475): 7190 nM
EC50 [7, 36]: 0.853 µM
EC50 [7, 37]: 0.406 µM
EC50 [7, 38]: 0.527 µM
EC50 [7, 39]: 0.501 µM
EC50 [7, 40]: 9.46 µM
EC50 [7, 41]: 0.195 µM
EC50 [7, 42]: 2.79 µM
EC50 [7, 43]: 0.713 µM
EC50 [7, 44]: 5.07 µM
EC50 [7, 45]: 1.28 µM
EC50 [7, 46]: 7.26 µM
EC50 [7, 47]: 7.92 µM
EC50 [7, 48]: 0.302 µM
Compound: CN(C)Cc1cncc(-c2ccc3[nH]nc(-c4cc5c(-c6ccoc6)ccnc5[nH]4)c3c2)c1 [Compound 51]
EC50 (all 50 cell lines): 6510 nM
